Test results taken from publication PMC4882559, “Novel Azetidine-Containing TZT-1027 Analogues as Antitumor Agents” (Marine Drugs, 2016).
One block for each compound: values may come before it.

How the values were obtained:
[1] = test system: A549 human lung carcinoma cell lines; test: Cancer cell proliferation inhibition (MTT assay), A549; assay type: cell-based
Protocol: (§1) The following cell lines were used for the screening stage, obtained from American Type Culture Collection (ATCC, Manassas, VA, USA); HCT116 human colon cancer cells and A549 human lung carcinoma cell lines were cultured in RPMI 1640 medium supplemented with 10% FBS. Cell cultures were maintained in a humidified atmosphere of 5% CO2 at 37 °C. Cells were seeded at 2000 cells per well in 96-well plates in a volume of 200 μL per well. The test compounds were dissolved in DMSO and diluted with culture medium to different concentrations. After seeding for 24 h, the medium was removed, and […] of the test compound solution was added in duplicates and incubation continued for 72 h at 37 °C in a humidified atmosphere containing 5% CO2. Control cells were treated with vehicle alone. During the last 4 h of incubation, the cells were exposed to tetrazolium dye (MTT) solution (5 mg/mL, […] per well). The generated formazan crystals were dissolved in […] of dimethyl sulfoxide (DMSO), and the absorbance was read spectrophotometrically at 570 nm using an enzyme-linked immunosorbent assay plate reader. The data was calculated using Graph Pad Prism version 5.0 (GraphPad Softwrae, La Jolla, CA, USA). The IC50s were fitted using a non-linear regression model with a sigmoidal dose response.

[2] = Liver microsomes metabolic stability, rat
[3] = Liver microsomes metabolic stability, human
[4] = Liver microsomes metabolic stability, mouse
Human A549 xenograft = test: In vivo efficacy study, A549 xenograft model; design: species or system BALB/c athymic mice; details: 2 mg/kg iv once a day; for Tumor volume: n = 6, mean (SD on next line); for Relative tumor volume: RTV = Vt/V0, n = 6, mean ± SD
Source text: Pathogen-free, 4–6 week-old, female BALB/c athymic mice (Shanghai SCXK Laboratory Animal Technology Co. Ltd., Shanghai, China) were housed under sterile conditions. Human A549 xenograft was established in the right flanks of athymic mice according to the protocol of the National Cancer Institute. When the tumor reached a volume of 100 mm^3, the mice were randomly assigned into control (n = 6 per group) and treatment groups (n = 6 per group). Control group were given lactate buffer, and treatment groups were iv administered with tested compounds. The size of tumor was measured individually on the indicated days. Tumor volume (V) was calculated as V = (length × width^2)/2. The individual relative tumor volume (RTV) was calculated as follows: RTV = Vt/V0, where Vt represented the last tumor size measurement and V0 represented the pre-dosing tumor size measurement. The animal experimental protocols were approved by the Animal Ethics Committee of School of Pharmacy, Fudan University and the mice were treated in accordance with international animal ethics guidelines.

[5] = dose of 4 mg/kg; cited from earlier work
Protocol: Further in vivo antitumor activities of 1a was evaluated in A549 xenograft models in mice via tail vein intravenous injection for 22 days. […] Considering of that, the maximum dose of 1a was chosen as 5 mg/kg. […] However, compound 1a could not achieve effective inhibition at all the dose levels (Figure 3b). TZT-1027 (2 mg/kg/day) inhibited tumor growth by 61% over the 22-day administration schedule, howe ... || In summary, we described the design and synthesis of nine TZT-1027 analogues based on the conformation restriction strategy. 3-Aryl-zetidines were used to replace the phenylethyl group at C-terminus. Two human cancer cell lines (A549, HCT116) were used to evaluate the potency of the synthesized compounds. […] Compound 1a could not achieve effective inhibition in A549 xenograft models at different dose levels.

[6] = test system: HCT116 human colon cancer cells; test: Cancer cell proliferation inhibition (MTT assay), HCT116; assay type: cell-based; details: Homo sapiens, HCT-116, 72 h incubation, mean ± SD of at least three independent experiments
Protocol: as §1

SMILES: CC[C@H](C)[C@@H]([C@@H](CC(=O)N1CCC[C@H]1[C@H](OC)[C@@H](C)C(=O)N1CC(c2ccccc2C(C)C)C1)OC)N(C)C(=O)[C@@H](NC(=O)[C@@H](C(C)C)N(C)C)C(C)C [1d, (S)-2-((R)-2-(Dimethylamino)-3-methylbutanamido)-N-((3R,4S,5S)-1-((S)-2-((1R,2R)-3-(3-(2-isopropylphenyl)azetidin-1-yl)-1-methoxy-2-methyl-3-oxopropyl)pyrrolidin-1-yl)-3-methoxy-5-methyl-1-oxoheptan-4-yl)-N,3-dimethylbutanamide]
loss of potency against A549 cell lines ([1]; substituted phenyl analogues compared with 1a): about 60 fold

Clint ([2]; Rat, apparent intrinsic clearance, 1 μM): 159.00 mL/min/kg
half-life at 1 μM ([2]; rat, liver microsomes): 15.6 min
Clint ([3]; Human, apparent intrinsic clearance, 1 μM): 39.63 mL/min/kg
half-life at 1 μM ([3]; human, liver microsomes): 43.9 min
Clint ([4]; Mouse, apparent intrinsic clearance, 1 μM): 402.92 mL/min/kg
half-life at 1 μM ([4]; mouse, liver microsomes): 13.5 min
SMILES: O=C(c1ccc(F)cc1)C1CCN(CCn2c(=O)[nH]c3ccccc3c2=O)CC1 [Ketanserin, ketanserin, reference compound]

SMILES: CC[C@H](C)[C@@H]([C@@H](CC(=O)N1CCC[C@H]1[C@H](OC)[C@@H](C)C(=O)NCCc1ccccc1)OC)N(C)C(=O)[C@@H](NC(=O)[C@H](C(C)C)N(C)C)C(C)C [TZT-1027]
Tumor volume (Human A549 xenograft; day 1): 147.31 mm3
Tumor volume (Human A549 xenograft; day 4): 182.59 mm3
Relative tumor volume (Human A549 xenograft; day 7): 1.48 ± 0.64
Tumor volume (Human A549 xenograft; day 7): 196.64 mm3
Relative tumor volume (Human A549 xenograft; day 10): 1.73 ± 0.78
Tumor volume (Human A549 xenograft; day 10): 232.81 mm3
Relative tumor volume (Human A549 xenograft; day 13): 2.09 ± 0.9
Tumor volume (Human A549 xenograft; day 13): 275.81 mm3
Relative tumor volume (Human A549 xenograft; day 16): 2.3 ± 0.9
Tumor volume (Human A549 xenograft; day 16): 301.7 mm3
Relative tumor volume (Human A549 xenograft; day 19): 2.6 ± 1.33
Tumor volume (Human A549 xenograft; day 19): 346.59 mm3
Relative tumor volume (Human A549 xenograft; day 22): 2.66 ± 1.11
Tumor volume (Human A549 xenograft; day 22): 363.71 mm3
toxicity of a dose [5]: seemed to be toxic

IC50 ([1]; Homo sapiens, A549, MTT assay, 72 h incubation, mean ± SD of at least three independent experiments): 23.5 ± 9.5 nM
IC50 [6]: 0.3 ± 0.1 nM
SMILES: CC(=O)O[C@@]12CO[C@@H]1C[C@H](O)[C@@]1(C)C(=O)[C@H](O)C3=C(C)[C@@H](OC(=O)[C@H](O)[C@@H](NC(=O)OC(C)(C)C)c4ccccc4)C[C@@](O)([C@@H](OC(=O)c4ccccc4)[C@H]21)C3(C)C [Docetaxel, reference compound]
